From US20240190904A1, “Heteroaryl compounds as inhibitors of RIP2 kinase, composition and application thereof” (Accro Bioscience (HK) Limited, priority 2021, published 2024)

How the values were obtained:
Assay type in all cases: in vivo
[1] = Pharmacokinetic evaluation in mice; settings: for AUC / Vd / clearance / half-life / Cmax / Tmax: male, mouse, plasma
Method: The mice pharmacokinetic characteristics of compounds were tested by standard protocols. The candidate compounds were made into clear solution for single intravenous injection (i.v.) and suspension for oral administration (p.o.). Intravenous vehicle is 5% DMSO+95% Saline while oral vehicle is 0.5% CMCNa. The experiment used 48 male mice and 24 mice for intravenous at a dose of 2 mg/kg. Plasma samples were collected at 0 h (before dosing) and 0.083 h, 0.25 h, 0.5 h, 1 h, 2 h, 4 h, 8 h, 24 h after dosing. Another 24 mice were orally administrated with a dose of 10 mg/kg. Plasma samples were collected at 0 h (before dosing) and 0.25 h, 0.5 h, 1 h, 2 h, 4 h, 6 h, 8 h, 24 h after dosing.
(§1) Blood samples were placed in tubes containing K2-EDTA and stored on ice until centrifuged. The blood samples were centrifuged at 6800 g for 6 minutes at 2-8° C. within 1 h after collected and stored frozen at approximately −80° C.
(§2) The analytical results were confirmed using quality control samples for intra-assay variation. The accuracy of >66.7% of the quality control samples and 50% of all QC samples at each concentration level were between 80-120% of the known value(s).
(§3) Standard set of parameters including Area Under the Curve (AUC(0-t) and AUC(0-∞)), elimination half-live (T1/2), maximum plasma concentration (Cmax), time to reach maximum plasma concentration (Tmax) were calculated using noncompartmental analysis modules in FDA certified pharmacokinetic program Phoenix WinNonlin 7.0 (Pharsight, USA) by the Study Director.

[2] = Pharmacokinetic evaluation in rats; settings: for AUC / Vd / clearance / half-life / Cmax / Tmax: male, plasma; for AUC / Vd / clearance / half-life / Cmax / Tmax / F: rat
Method: The rat pharmacokinetic characteristics of compounds were tested by standard protocols. The candidate compounds were made into clear solution for single intravenous injection (i.v.) and suspension for oral administration (p.o.). Intravenous vehicle is 5% DMSO+95% Saline while oral vehicle is 0.5% CMCNa. The experiment used 9 male rats and 3 rats for intravenous at a dose of 2 mg/kg. Plasma samples were collected at 0 h (before dosing) and 0.083 h, 0.25 h, 0.5 h, 1 h, 2 h, 4 h, 8 h, 24 h after dosing. 3 rats were orally administrated at a dose of 10 mg/kg and 3 rats were orally administrated at a dose of 100 mg/kg. Plasma samples were collected at 0 h (before dosing) and 0.25 h, 0.5 h, 1 h, 2 h, 4 h, 6 h, 8 h, 24 h after dosing.
as §1, §2, §3

[3] = test system: MDP induced peritonitis; experiment: MDP (muramyl dipeptide) induced peritonitis, IL-6 by ELISA; settings: mice, gavage, same dosage as GSK2983559 (10 mg/kg), 3 hours post MDP
Method: Mice were divided into four groups Including normal group, DMSO group, positive control group (GSK2983559) and compound group. Mice were dosed by gavage with either GSK2983559 at 10 mg/kg or candidate compounds at 3, 10 mg/kg 30 minutes prior to MDP injection (100 μg/mouse, ip). At 3 hours post MDP administration, the blood sample was collected from ocular vein after anesthesia. IL-6 levels were detected by ELISA.

[4] = Pharmacokinetic evaluation in beagle dog; settings: for AUC / Vd / clearance / half-life / Cmax / Tmax: plasma
Method: The beagle dog pharmacokinetic characteristics of compounds were tested by standard protocols. The candidate compounds were made into clear solution for single intravenous injection (i.v.) and suspension for oral administration (p.o.). Intravenous vehicle is 5% DMSO+95% Saline while oral vehicle is 0.5% CMCNa. The experiment used 9 dogs. The dogs for intravenous at a dose of 1 mg/kg. Plasma samples were collected at 0 h (before dosing) and 0.083 h, 0.25 h, 0.5 h, 1 h, 2 h, 4 h, 8 h, 24 h after dosing. Three dogs were orally administrated at a dose of 5 mg/kg. Another 3 dogs were orally administrated at a dose of 15 mg/kg or 30 mg/kg. Plasma samples were collected at 0 h (before dosing) and 0.25 h, 0.5 h, 1 h, 2 h, 4 h, 6 h, 8 h, 24 h after dosing.
as §1, §2, §3

| AUC ([1]; iv, i.v. 2 mg/kg) [ng·h/mL] | Vd ([1]; iv, i.v. 2 mg/kg) [L/kg] | clearance ([1]; iv, i.v. 2 mg/kg) [mL/min/kg] | half-life ([1]; iv, i.v. 2 mg/kg) [h] | AUC ([1]; po, p.o. 10 mg/kg) [ng·h/mL] | Cmax ([1]; po, p.o. 10 mg/kg) [ng/mL] | Tmax ([1]; po, p.o. 10 mg/kg) [h] | F ([1]; p.o. 10 mg/kg) [%] | AUC ([2]; iv, i.v. 2 mg/kg) [ng·h/mL] | Vd ([2]; iv, i.v. 2 mg/kg) [L/kg] | clearance ([2]; iv, i.v. 2 mg/kg) [mL/min/kg] | half-life ([2]; iv, i.v. 2 mg/kg) [h] | AUC ([2]; po, p.o. 10 mg/kg) [ng·h/mL] | Cmax ([2]; po, p.o. 10 mg/kg) [ng/mL] | Tmax ([2]; po, p.o. 10 mg/kg) [h] | Cmax ([2]; po, p.o. 100 mg/kg) [ng/mL] | Tmax ([2]; po, p.o. 100 mg/kg) [h] | F ([2]; p.o. 10 mg/kg) [%] | Compound | plasma exposure and bioavailability in mice (in words) [1] | plasma exposure and bioavailability in rat (in words) [2] | also measured |
| --- | --- | --- | --- | --- | --- | --- | --- | --- | --- | --- | --- | --- | --- | --- | --- | --- | --- | --- | --- | --- | --- |
| 2990 | 1.1 | 11.1 | 1.2 | 19200 | 9610 | 0.5 | 129 | 7890 | 0.6 | 4.2 | 1.7 | 18800 | 3320 | 3.3 | 68400 | 4.7 | 48 | COc1cc2nccc(Nc3ccc4scnc4c3)c2cc1P(C)(C)=O [A6] | excellent plasma exposure and bioavailability | excellent plasma exposure and bioavailability | AUC ([2]; po, p.o. 100 mg/kg): 729000 ng·h/mL; F ([2]; p.o. 100 mg/kg): 185%; inhibition of the level of IL-6 compared with positive control (in words) [3]: more effectively than positive control GSK2983559; plasma exposure and bioavailability in beagle dog (in words) [4]: excellent plasma exposure and bioavailability; F ([4]; p.o. 5 mg/kg): 131%; F ([4]; p.o. 30 mg/kg): 184%; AUC ([4]; iv, i.v. 1 mg/kg): 1640 ng·h/mL; Vd ([4]; iv, i.v. 1 mg/kg): 1.7 L/kg; clearance ([4]; iv, i.v. 1 mg/kg): 9.5 mL/min/kg; half-life ([4]; iv, i.v. 1 mg/kg): 2.1 h; AUC ([4]; po, p.o. 5 mg/kg): 10800 ng·h/mL; Cmax ([4]; po, p.o. 5 mg/kg): 2190 ng/mL; Tmax ([4]; po, p.o. 5 mg/kg): 0.7 h; AUC ([4]; po, p.o. 30 mg/kg): 90800 ng·h/mL; Cmax ([4]; po, p.o. 30 mg/kg): 8630 ng/mL; Tmax ([4]; po, p.o. 30 mg/kg): 2.7 h |
| 22600 | 0.27 | 1.5 | 2.2 | 89100 | 16200 | 0.8 | 79 | 26500 | 0.19 | 1.2 | 18 | 248000 | 20400 | 1.8 | 197000 | 24 | 187 | CP(C)(=O)c1cc2c(Nc3ccc4scnc4c3)ccnc2cc1OC(F)(F)F [A24] | excellent plasma exposure and bioavailability | excellent plasma exposure and bioavailability | F ([2]; p.o. 100 mg/kg): 244%; inhibition of the level of IL-6 compared with positive control (in words) [3]: more effectively than positive control GSK2983559; plasma exposure and bioavailability in beagle dog (in words) [4]: excellent plasma exposure and bioavailability; F ([4]; p.o. 5 mg/kg): 212%; F ([4]; p.o. 15 mg/kg): 88%; AUC ([4]; iv, i.v. 1 mg/kg): 3800 ng·h/mL; Vd ([4]; iv, i.v. 1 mg/kg): 0.7 L/kg; clearance ([4]; iv, i.v. 1 mg/kg): 4.3 mL/min/kg; half-life ([4]; iv, i.v. 1 mg/kg): 1.9 h; AUC ([4]; po, p.o. 5 mg/kg): 40300 ng·h/mL; Cmax ([4]; po, p.o. 5 mg/kg): 9720 ng/mL; Tmax ([4]; po, p.o. 5 mg/kg): 1.1 h; AUC ([4]; po, p.o. 15 mg/kg): 50400 ng·h/mL; Cmax ([4]; po, p.o. 15 mg/kg): 13300 ng/mL; Tmax ([4]; po, p.o. 15 mg/kg): 3 h |
